For 26 compounds, EC50 results are on record in US20250382301A1 (Arizona Board of Regents on Behalf of the University of …, priority 2022, published 2025).

The subject of the assay is WNT signaling (TopGFP reporter in Human Colonic Epithelial Cells (HCEC)). Nature of the assay: WNT Reporter Assay (TopGFP reporter). Format: cell-based. To be noted: stimulated with 10 μM CHIR99021, 24 hours, TopGFP/mCherry.

Experimental: WNT Reporter Assay: Human Colonic Epithelial Cells (HCEC) were cultured using 1×DMEM supplemented with 1% penicillin/streptomycin, 1% Glutamax, and 10% fetal bovine serum in 5% CO2 at 37° C. These cells were previously engineered to express the TopGFP reporter (Addgene #24304) using second generation lentiviral techniques. For the Wnt reporter assay, cells were seeded at 2000 cells per well in a 384-well black screenstar imaging microplates (Greiner #781866) and allowed to adhere overnight. The following day cells were stimulated to induce the Wnt pathway using 10 μM CHIR99021 (Selleck #S1263). […] Cells were incubated for 24 hours before fixing for 30 minutes with 4% paraformaldehyde/sucrose solution. Cells were permeabilized with 0.1% triton-x in PBS for 10 minutes and stained for DAPI for 30 minutes. Plates were imaged on a Nikon Ti2 Eclipse fluorescent microscope for DAPI, GFP, and mCherry. Using Nikon Elements software for analysis, nuclei were segmented based on DAPI and mean object intensity per cell for both TopGFP and the internal control (mCherry) was measured. To calculate the amount of Wnt activity, we took the mean intensity of TopGFP and divided it by the mean intensity of mCherry per cell to normalize individual cells. Curves and EC50s were plotted and calculated using Graphpad Prism software.

`Nc1cc(-c2ccc3ncnc(N4CCN(c5ccccc5F)C(=O)C4)c3n2)ccn1` [Compound 67, 4-(6-(2-aminopyridin-4-yl)pyrido[3,2-d]pyrimidin-4-yl)-1-(2-fluorophenyl)piperazin-2-one] registered an EC50 (Homo sapiens) of under 100 nM.
Consider `Fc1ccc(CN2CCN(c3ncnc4ccc(-c5c[nH]c6ncccc56)cc34)CC2)cc1` [Compound 49, 4-(4-(4-fluorobenzyl)piperazin-1-yl)-6-(1H-pyrrolo[2,3-b]pyridin-3-yl)quinazoline], for which, for the setting “Homo sapiens”, the EC50 is under 100 nM.
Still for that read-out and setting: in the case of `Nc1cc(-c2ccc3ncnc(N4CCCN(c5ccccn5)CC4)c3c2)ccn1` [Compound 56, 4-(4-(4-(pyridin-2-yl)-1,4-diazepan-1-yl)quinazolin-6-yl)pyridin-2-amine] it was over 1000 nM.
The same measure, in the same setting: the figure for `Nc1cc(-c2ccc3ncnc(N4CCN(c5ccccc5F)CC4)c3c2)ccn1` [Compound 15, 4-(4-(4-(2-fluorophenyl)piperazin-1-yl)quinazolin-6-yl)pyridin-2-amine] is 100 to 1000 nM.
For `Nc1cc(-c2ccc3ncnc(N4CCN(c5ccc(F)cc5F)CC4)c3c2)ccn1` [Compound 39, 4-(4-(4-(2,4-difluorophenyl)piperazin-1-yl)quinazolin-6-yl)pyridin-2-amine], the 50% effective concentration (EC50) (Homo sapiens) was in the range of 100 to 1000 nM.
Still for that read-out and setting: the figure for `C[C@@H]1CN(c2ccccn2)CCN1c1ncnc2ccc(-c3ccnc(N)c3)cc12` [Compound 44, (R)-4-(4-(2-methyl-4-(pyridin-2-yl)piperazin-1-yl)quinazolin-6-yl)pyridin-2-amine] is 100 to 1000 nM; for `Nc1cc(-c2ccc3ncnc(N4CCN(C5COC5)CC4)c3c2)ccn1` [Compound 11, 4-(4-(4-(oxetan-3-yl)piperazin-1-yl)quinazolin-6-yl)pyridin-2-amine] it is over 1000 nM.
The same measure, in the same setting: the figure for `Nc1cc(-c2ccc3ncnc(N4CCN(Cc5ccc(F)cc5)CC4)c3c2)ccn1` [Compound 43, 4-(4-(4-(4-fluorobenzyl)piperazin-1-yl)quinazolin-6-yl)pyridin-2-amine] is 100 to 1000 nM; for `Nc1cc(-c2ccc3ncnc(N4CCC5(CCN(c6ccccn6)C5)CC4)c3c2)ccn1` [Compound 65, 4-(4-(2-(pyridin-2-yl)-2,8-diazaspiro[4.5]decan-8-yl)quinazolin-6-yl)pyridin-2-amine] it is under 100 nM.
Same read-out and setting: the figure for `Cc1ccc(N2CCN(c3ccnc4ccc(-c5ccnc(N)c5)cc34)CC2)c(C)c1` [Compound 34, 4-(4-(4-(2,4-dimethylphenyl)piperazin-1-yl)quinolin-6-yl)pyridin-2-amine] is 100 to 1000 nM.
As for `Fc1cc(-c2ccc3ncnc(N4CCN(c5ccccn5)CC4)c3c2)ccn1` [Compound 13, 6-(2-fluoropyridin-4-yl)-4-(4-(pyridin-2-yl)piperazin-1-yl)quinazoline], the EC50 (Homo sapiens) is over 1000 nM.
On to `O=c1ccccn1C1CCN(c2ncnc3ccc(-c4c[nH]c5ncccc45)cc23)CC1` [Compound 58, 1-(1-(6-(1H-pyrrolo[2,3-b]pyridin-3-yl)quinazolin-4-yl)piperidin-4-yl)pyridin-2(1H)-one], for which the concentration giving a half-maximal response (EC50) (Homo sapiens) was under 100 nM.
Regarding “6-(1H-pyrazol-3-yl)-4-(4-(5-(trifluoromethyl)pyridin-2-yl)piperazin-1-yl)pyrido[3,2-d]pyrimidine [Compound 22]”, the EC50 is under 100 nM.
Regarding `c1ccc(N2CCN(c3ccnc4ccc(-c5cn[nH]c5)cc34)CC2)cc1` [Compound 26, 4-(4-phenylpiperazin-1-yl)-6-(1H-pyrazol-4-yl)quinoline], the concentration for a half-maximal effect (EC50) (Homo sapiens) is under 100 nM.
Same read-out and setting: the figure for `Nc1cc(-c2ccc3ncnc(N4CCN(c5ccccc5F)CC4)c3n2)ccn1` [Compound 19, 4-(4-(4-(2-fluorophenyl)piperazin-1-yl)pyrido[3,2-d]pyrimidin-6-yl)pyridin-2-amine] is under 100 nM; for `Nc1cc(-c2ccc3ncnc(N4CCC(n5ccccc5=O)CC4)c3c2)ccn1` [Compound 62, 1-(1-(6-(2-aminopyridin-4-yl)quinazolin-4-yl)piperidin-4-yl)pyridin-2(1H)-one] it is 100 to 1000 nM.
Still for that read-out and setting: the figure for `Nc1cc(-c2ccc3ncnc(N4CCC(c5ccccc5)CC4)c3c2)ccn1` [Compound 51, 4-(4-(4-phenylpiperidin-1-yl)quinazolin-6-yl)pyridin-2-amine] is 100 to 1000 nM; for `CC(=O)N1CCN(c2ncnc3ccc(-c4ccnc(N)c4)cc23)CC1` [Compound 1, 1-(4-(6-(2-aminopyridin-4-yl)quinazolin-4-yl)piperazin-1-yl)ethan-1-one] it is 100 to 1000 nM.
On the same count and under the same terms, in the case of `Nc1cc(-c2ccc3ncnc(N4CCCN(Cc5ccc(F)cc5)CC4)c3c2)ccn1` [Compound 41, 4-(4-(4-(4-fluorobenzyl)-1,4-diazepan-1-yl)quinazolin-6-yl)pyridin-2-amine] it was 100 to 1000 nM; in that of `c1ccc(N2CCN(c3ncnc4ccc(-c5c[nH]c6ncccc56)cc34)CC2)nc1` [Compound 17, 4-(4-(pyridin-2-yl)piperazin-1-yl)-6-(1H-pyrrolo[2,3-b]pyridin-3-yl)quinazoline], under 100 nM; in that of `Nc1cc(-c2ccc3ncnc(N4CCN(C(=O)c5ccccc5F)CC4)c3c2)ccn1` [Compound 46, (4-(6-(2-aminopyridin-4-yl)quinazolin-4-yl)piperazin-1-yl)(2-fluorophenyl)methanone], over 1000 nM.
In turn, “4-(4-(2-fluorophenyl)piperazin-1-yl)-6-(1-methyl-1H-pyrazol-3-yl)pyrido[3,2-d]pyrimidine [Compound 20]” displayed a half-maximal effective concentration (EC50) of over 1000 nM.
Consider `Nc1cc(-c2ccc3ncnc(N4CCN(c5nccs5)CC4)c3c2)ccn1` [Compound 50, 4-(4-(4-(thiazol-2-yl)piperazin-1-yl)quinazolin-6-yl)pyridin-2-amine], for which the EC50 (Homo sapiens) is under 100 nM.
For the compound `Nc1cc(-c2ccc3ncnc(N4CCN(c5ccccc5)CC4)c3n2)ccn1` [Compound 4, 4-(4-(4-phenylpiperazin-1-yl)pyrido[3,2-d]pyrimidin-6-yl)pyridin-2-amine], the EC50 (Homo sapiens) was under 100 nM.
On the same count and under the same terms, in the case of `Nc1cc(-c2ccc3ncnc(N4CCN(c5ccccn5)CC4)c3c2)ccn1` [Compound 3, 4-(4-(4-(pyridin-2-yl)piperazin-1-yl)quinazolin-6-yl)pyridin-2-amine] it was under 100 nM; in that of `Nc1cc(-c2ccc3nccc(N4CCN(c5ccc(F)cc5)CC4)c3c2)ccn1` [Compound 30, 4-(4-(4-(4-fluorophenyl)piperazin-1-yl)quinolin-6-yl)pyridin-2-amine], under 100 nM.
